These results are taken from patent publication US20230151336A1, “STEM CELL DERIVED SINGLE-ROSETTE BRAIN ORGANOIDS AND RELATED USES THEROF” (The Regents of the University of Michigan, priority 2020, published 2023).

Holding throughout (format): cell-based, human
Series [1] concerns ventral SOSRS. As to the kind of experiment: Ventral SOSRS patterning (immunostaining, size). The procedure:
For ventral SOSRS differentiation, no cyclopamine or CHIR99021 were used. After plating onto Geltrex, 1 μM SAG and 2 μM XAV939 were added the culture media for 1 week. All other procedures were performed identically (FIG. 5).
SOSRS imaged before day 11 were grown on Nunc™ Lab-Tek™ III 8-well chamber slides (Thermo Scientific) and were fixed in paraformaldehyde for 30 min at room temperature (RT). After permeabilization with 0.2% Triton-X 100 for 20 min at RT, cells were incubated in PBS containing 5% normal goat serum with 1% BSA and 0.05% Triton-X100 for 1 h at RT. Older SOSRS were fixed for 30 minutes in suspension and incubated in 30% sucrose overnight at 4 C followed by embedding in TFM medium and freezing on dry ice. The blocks were sectioned on a Cryostat with 20 μM section thickness. All samples were incubated in primary antibody overnight (see Supplemental Table 2 for antibodies and dilutions) in the same blocking buffer at 4° C., washed 4 times in PBS with 0.05% Tween-20 (PBST), and incubated for 90 min with secondary antibody. Cells were washed 3 times in PBST and incubated with bisbenzimide for 5 min. After additional PBS washes, coverslips were mounted on slides with Glycergel mounting medium (Agilent Dako). Images were obtained on a Leica SP5 upright DMI 6000 confocal microscope. […]

Series [2] relates to self-organizing single-rosette spheroids (SOSRS). Description: SOSRS neuroteratogen screening (structural read-out of lumen/neurulation). The procedure: iPSC lines were passaged using Accutase (Innovative cell) and replated onto Geltrex-coated (1:50 dilution in DMEM/F12) 12-well plates at 1.5-2×10^5 cells/well in mTeSR1 with 10 μM rho-kinase inhibitor (Y-27632; Tocris, 1254). The medium without the inhibitor was replaced daily until the cells reach 80-100% confluency. The medium was then changed to 3N (50:50 DMEM/F12:neurobasal with N2 and B27 supplements) (see, Shi, Y., et al., Nature Neuroscience 15, 477-486 (2012)) without vitamin A with 2 μM DMH1 (Tocris, 4126), 2 μM XAV939 (Cayman Chemical, 13596), and 10 μM SB431542 (Cayman Chemical, 13031) (4 mL of medium per well). 75% of this medium was changed daily with 1 μM cyclopamine (Cayman Chemical, 11321) added beginning on day 1. On day 4, the monolayer was cut into squares using the StemPro EZ passage tool. The squares were then washed once with PBS and incubated for 2 minutes with L7 hPSC passaging solution (Lonza). After aspirating the L7 solution, the squares were sprayed off the bottom with the same culture medium 1 mL of preconditioned culture media with a P1000 micropipette. An additional 2 mL of fresh culture medium with the 4 inhibitors was added for a final volume of 3 mL. Approximately 200 μL of resuspended squares were then transfer into the wells of 96-well plates preincubated at 37° C. for 20 minutes with 30 μL of 100% Geltrex solution in each well. Up to 16 wells can be made using one monolayer well. Higher densities will result in fusion between nearby SOSRS forming multi-rosette doublets or “strings”. After 48 hours, daily 50% media changes were performed. On day 6 overall (2 days after cutting), the four inhibitors were no longer added but replaced with the 3 μM CHIR99021. After 3-4 additional days of culture, the wells were washed once with PBS and incubated for 2 minutes with L7 solution. The organoids were individually removed using the STRIPPER (Cooper Surgical) with 275 μM tips and plated individually in the wells of a low-adherence U-bottom 96-well plate with 200 μL of 3N medium without vitamin A with 3 μM CHIR99021, BDNF (20 ng/mL), and NT3 (20 ng/mL). Ideal diameters for picking the SOSRS are between 250-300 μM. Two days later half-fold media changes with 3N with vitamin A, BDNF (20 ng/mL), and NT3 (20 ng/mL) and repeated every other day. After 35 days of differentiation, 3N media with vitamin A without neurotrophic factors (BDNF and NT3) is used for half-fold media changes every other day. Around this time, SOSRS are transferred from the low-adherence 96-well plate to a low-adherence 24 well plate for a necessary increase in media volume due to SOSRS size.
SOSRS imaged before day 11 were grown on Nunc™ Lab-Tek™ III 8-well chamber slides (Thermo Scientific) and were fixed in paraformaldehyde for 30 min at room temperature (RT). After permeabilization with 0.2% Triton-X 100 for 20 min at RT, cells were incubated in PBS containing 5% normal goat serum with 1% BSA and 0.05% Triton-X100 for 1 h at RT. Older SOSRS were fixed for 30 minutes in suspension and incubated in 30% sucrose overnight at 4 C followed by embedding in TFM medium and freezing on dry ice. The blocks were sectioned on a Cryostat with 20 μM section thickness. All samples were incubated in primary antibody overnight (see Supplemental Table 2 for antibodies and dilutions) in the same blocking buffer at 4° C., washed 4 times in PBS with 0.05% Tween-20 (PBST), and incubated for 90 min with secondary antibody. Cells were washed 3 times in PBST and incubated with bisbenzimide for 5 min. After additional PBS washes, coverslips were mounted on slides with Glycergel mounting medium (Agilent Dako). Images were obtained on a Leica SP5 upright DMI 6000 confocal microscope.
This 3D model of human neurulation allowed us to test known neuroteratogens that block a specific pathway necessary for proper neural tube formation. These were the rho-kinase inhibitor, Y-27632, and the non-muscle myosin inhibitor, blebbistatin^26, 27. […]

For series [3] the test system is unchanged. As to the kind of experiment: SOSRS cell death and growth during dorsal differentiation. The procedure:
iPSC lines were passaged using Accutase (Innovative cell) and replated onto Geltrex-coated (1:50 dilution in DMEM/F12) 12-well plates at 1.5-2×10^5 cells/well in mTeSR1 with 10 μM rho-kinase inhibitor (Y-27632; Tocris, 1254). The medium without the inhibitor was replaced daily until the cells reach 80-100% confluency. The medium was then changed to 3N (50:50 DMEM/F12:neurobasal with N2 and B27 supplements) (see, Shi, Y., et al., Nature Neuroscience 15, 477-486 (2012)) without vitamin A with 2 μM DMH1 (Tocris, 4126), 2 μM XAV939 (Cayman Chemical, 13596), and 10 μM SB431542 (Cayman Chemical, 13031) (4 mL of medium per well). 75% of this medium was changed daily with 1 μM cyclopamine (Cayman Chemical, 11321) added beginning on day 1. On day 4, the monolayer was cut into squares using the StemPro EZ passage tool. The squares were then washed once with PBS and incubated for 2 minutes with L7 hPSC passaging solution (Lonza). After aspirating the L7 solution, the squares were sprayed off the bottom with the same culture medium 1 mL of preconditioned culture media with a P1000 micropipette. An additional 2 mL of fresh culture medium with the 4 inhibitors was added for a final volume of 3 mL. Approximately 200 μL of resuspended squares were then transfer into the wells of 96-well plates preincubated at 37° C. for 20 minutes with 30 μL of 100% Geltrex solution in each well. Up to 16 wells can be made using one monolayer well. Higher densities will result in fusion between nearby SOSRS forming multi-rosette doublets or “strings”. After 48 hours, daily 50% media changes were performed. On day 6 overall (2 days after cutting), the four inhibitors were no longer added but replaced with the 3 μM CHIR99021. After 3-4 additional days of culture, the wells were washed once with PBS and incubated for 2 minutes with L7 solution. The organoids were individually removed using the STRIPPER (Cooper Surgical) with 275 μM tips and plated individually in the wells of a low-adherence U-bottom 96-well plate with 200 μL of 3N medium without vitamin A with 3 μM CHIR99021, BDNF (20 ng/mL), and NT3 (20 ng/mL). […]

Setting [4] is: addition from day 6-10, 3 μM, FIG. 2.

Structures are written as SMILES.

Regarding `CNC1CCC(N(Cc2cccc(-c3ccncc3)c2)C(=O)c2sc3ccccc3c2Cl)CC1` (stereo not drawn) [SAG], the NKX2.1/FOXG1 positive cells in series [1] (one-month SOSRS, SAG instead of CHIR99021 from day 7 to day 14, XAV939 continued) is recorded as around 100%.
Turning to `CC(/C=C/C(=O)NO)=C\[C@@H](C)C(=O)c1ccc(N(C)C)cc1` [TSA], in series [2], the “replication of the VPA effect on ratio of lumen area to SOSRS area” value is on record as “not replicated”.
Regarding `Cc1c[nH]c(-c2cnc(NCCNc3ccc(C#N)cn3)nc2-c2ccc(Cl)cc2Cl)n1` [CHIR99021], in series [3] (setting [4]), the SOSRS growth result is reported as “grow more rapidly” and the “cell death around SOSRS perimeter” value is “blocked the majority of cell death”. For the same molecule, the PAX6 positive cells result in series [3] (pulse day 6-10, FIGS. 1i and j) is reported as “rapid expansion”.
In the case of `C[C@@H](N)[C@H]1CC[C@H](C(=O)Nc2ccncc2)CC1` [Y-27632], in series [2], the “apical end-feet surface areas (ZO-1)” value is “increased”, the lumen circularity entry is “decreased” and the lumen/total area result is recorded as “increased”.
Regarding `Oc1nc(-c2ccc(C(F)(F)F)cc2)nc2c1CSCC2` [XAV939, 3,5,7,8-Tetrahydro-2-[4-(trifluoromethyl)phenyl]-4H-thiopyrano[4,3-d]pyri-midin-4-one], the “SOSRS size and MGE specification” value in series [1] (continued day 7 to day 14 with SAG, data not shown) is on record as “increase”.
With `Cc1ccc2c(c1)C(=O)C1(O)CCN(c3ccccc3)C1=N2` (stereo not drawn) [blebbistatin], in series [2], the “apical end-feet surface areas (ZO-1)” value is “increased”, the lumen circularity entry was “decreased” and the lumen/total area entry was “increased”.
